Source: patent US7179814B2, “Agents for controlling plant pests” (priority 1998, dated 2007)
Like-named read-outs stand apart in the source and are kept apart here.

Legend:
[1] = system: Diabrotica balteata larvae in soil; experiment: Critical concentration test/soil insects, Diabrotica balteata; type: in vivo; details: 20.0 ppm in soil, 7 days after infestation; for pest or weed control at 20 ppm: Diabrotica balteata, 168 h, read-out: Kill in %
Protocol: (§1) To produce a suitable preparation of active compound, 1 part by weight of the active compound or the active compound mixture is mixed with the stated amounts of solvent and emulsifier, and the concentrate is diluted with water to the desired concentration.
(§2) The active compound preparation is mixed intimately with soil. Here, the concentration of the active compound in the preparation is almost irrelevant; only the amount by weight of active compound or active compound mixture per volume unit of soil, which is stated in ppm (mg/l), matters.
Soil is filled into 0.5 l pots and these are allowed to stand at 20° C. Immediately after preparation, 5 pre-germinated maize corns are placed into each pot. After 2 days, the test insects are placed into the treated soil. After a further 7 days, the kill in % is determined. 100% means that all test insects have been killed; 0% means that none of the test insects have been killed.

Spodoptera frugiperda = experiment: Critical concentration test/soil insects, Spodoptera frugiperda; type: in vivo; details: 120 h, 20.00 ppm in soil, 5 days after infestation, read-out: Kill in %
Protocol: as §1, §2
Soil is filled into 0.5 l pots and these are allowed to stand at 20° C. Immediately after preparation, 3 pre-germinated maize corns are placed into each pot. After the maize corns have emerged, boring sleeves are placed onto the pots. 9 days after preparation, the maize is populated with the test insects. After a further 5 days, the kill in % is determined. 100% means that all test insects have been killed; 0% means that the number of insects which are still alive is the same as for the untreated control.

[2] = system: Phaedon cochleariae larvae; experiment: Critical concentration test/root-systemic action, Phaedon cochleariae; type: in vivo; details: 72 h, 20.00 ppm in soil, root-systemic, 3 days after infestation, read-out: Kill in %
Protocol: as §1, §2
Soil is filled into 250 ml pots and these are planted with cabbage (Brassica oleracea). The active compound or the active compound combination can thus be taken up by the plant roots from the soil and transported into the leaves.
After 7 days, the leaves are populated with the abovementioned test animals. After a further 3 days, the kill in % is determined. 100% means that all test insects have been killed; 0% means that the number of insects which are still alive is the same as in the untreated control.

[3] = system: caterpillars of the diamondback moth (Plutella xylostella); experiment: Plutella test (cabbage leaf dip); type: in vivo
Protocol: (§3) To produce a suitable preparation of active compound, 1 part by weight of an active compound or an active compound combination is mixed with the stated amounts of solvent and emulsifier, and the concentrate is diluted with water to the desired concentration.
Cabbage leaves (Brassica oleracea) are treated by being dipped into the preparation of active compound of the desired concentration and are populated with caterpillars of the diamondback moth (Plutella xylostella) while the leaves are still moist.
After the desired period of time, the kill in % is determined 100% means that all caterpillars have been killed; 0% means that none of the caterpillars have been killed.

green peach aphid = experiment: Myzus test (cabbage leaf dip); type: in vivo, Myzus (green peach aphid); details: concentration 0.1 %
Protocol: as §3
Cabbage leaves (Brassica oleracea) which are heavily infested by the green peach aphid are treated by being dipped into the active compound preparation of the desired concentration.
After the desired period of time, the kill in % is determined. 100% means that all aphids have been killed; 0% means that none of the aphids have been killed.

Botrytis cinerea = experiment: Botrytis test (bean)/protective; type: in vivo; details: single active compound
Protocol: as §3, with “of” for “of an”, “or” for “or an”, “desired concentration, or a commercial formulation of active compound or active compound combination is diluted with water to the desired” for “desired”
To test for protective activity, young plants are sprayed with the active compound preparation at the stated application rate. After the spray coating has dried on, 2 small pieces of agar colonized by Botrytis cinerea are placed onto each leaf. The inoculated plants are placed in a dark chamber at approximately 20° C. and 100% relative atmospheric humidity.
2 days after the inoculation, the size of the disease spots on the leaves is evaluated. 0% means an efficacy which corresponds to that of the control, whereas an efficacy of 100% means that no infection is observed.

[4] = system: Erysiphe graminis f.sp. hordei; experiment: Erysiphe test (barley)/protective; type: in vivo; details: 18.75 g/ha, single active compound
Protocol: as §3, with “of” for “of an”, “or” for “or an”, “desired concentration, or a commercial formulation of active compound or active compound combination is diluted with water to the desired” for “desired”
To test for protective activity, young plants are sprayed with the preparation of active compound at the stated application rate.
After the spray coating has dried on, the plants are dusted with spores of Erysiphe graminis f.sp. hordei.
The plants are placed in a greenhouse at a temperature of approximately 20° C. and a relative atmospheric humidity of approximately 80% to promote the development of mildew pustules.
(§4) Evaluation is carried out 7 days after the inoculation. 0% means an efficacy which corresponds to that of the control, whereas an efficacy of 100% means that no infection is observed.

Pyrenophora teres = Pyrenophora teres test (barley)/protective; type: in vivo; details: single active compound
Protocol: as §3, with “of” for “of an”, “or” for “or an”, “desired concentration, or a commercial formulation of active compound or active compound combination is diluted with water to the desired” for “desired”
To test for protective activity, young plants are sprayed with the active compound preparation at the stated application rate. After the spray coating has dried on, the plants are sprayed with a conidia suspension of Pyrenophora teres. The plants remain in an incubation cabin at 20° C. and 100% relative atmospheric humidity for 48 hours.
The plants are then placed in a greenhouse at a temperature of approximately 20° C. and a relative atmospheric humidity of approximately 80%.
as §4

Phytophthora infestans = type: in vivo; details: single active compound
[5] = system: green rice leaf hopper (Nephotettix cincticeps); experiment: Nephotettix test (rice seedling dip); type: in vivo
Protocol: as §3
Rice seedlings (Oryza sativa) are treated by being dipped into the active compound preparation of the desired concentration and are populated with the green rice leaf hopper (Nephotettix cincticeps) while the leaves are still moist.
After the desired period of time, the kill in % is determined. 100% means that all the leaf hoppers have been killed; 0% means that none of the leaf hoppers have been killed.

Fusarium culmorum = Fusarium culmorum test (wheat)/seed treatment; type: in vivo; details: 75 g/ha, dry seed dressing, approximately 3 weeks after sowing
Protocol: The active compounds are applied as a dry dressing. They are prepared by extending the active compound in question with ground minerals to give a finely pulverulent mixture which ensures even distribution on the surface of the seeds.
For the dressing, the infected seeds are shaken with the dressing in a closed glass bottle for 3 minutes.
2×100 seeds of the wheat are sown at a depth of 1 cm into standard soil, and the wheat is cultivated in a greenhouse at a temperature of approximately 18° C. and at a relative atmospheric humidity of approximately 95% in seed containers receiving 15 hours of light per day.
The evaluation of the plants for symptoms is carried out approximately 3 weeks after sowding. 0% means an efficacy which corresponds to that of the control, whereas an efficacy of 100% means that no infection is observed.

[6] = system: Heliothis virescens caterpillars; experiment: Heliothis virescens test (soya bean shoot dip); type: in vivo; details: concentration 0.02 %
Protocol: as §3
Soya bean shoots (Glycine max) are treated by being dipped into the active compound preparation of the desired concentration and are populated with Heliothis virescens caterpillars while the leaves are still moist.
After the desired period of time, the kill in % is determined. 100% means that all caterpillars have been killed; 0% means that none of the caterpillars have been killed.

[7] = system: Diabrotica balteata - larvae in the soil; experiment: Critical concentration test/soil insects, Diabrotica balteata (Example Q); type: in vivo; details: 10.00 ppm in soil; efficacy calculated from number of emerged maize plants
Protocol: To produce a suitable preparation of active compound, 1 part by weight of active compound is mixed with the stated amount of solvent, the stated amount of emulsifier is added and the concentrate is diluted with water to the desired concentration. Here, the concentration of the active compound in the preparation is almost irrelevant; only the amount by weight of active compound per volume unit of soil, which is stated in ppm (mg/l), matters. The soil is filled into 0.5 l pots and these are allowed to stand at 20° C.
Immediately after preparation, 5 maize corns are placed into each pot. After 3 days, the test insects are placed into the treated soil. After a further 7 days, the efficacy is determined. The efficacy is calculated from the number of maize plants which have emerged.

In the case of N#Cc1c[nH]cc1-c1cccc(Cl)c1Cl [fenpiclonil], the pest or weed control at 20 ppm [1] was 0%, the pest or weed control at 20 ppm (Spodoptera frugiperda) was 0% and the pest or weed control at 20 ppm [2] was 0%. The Kill in % ([3]; concentration 0.1 %) was 0% and the Kill in % (green peach aphid) was 0%.
In the case of CC(C)(C)C(O)C(Oc1ccc(-c2ccccc2)cc1)n1cncn1 (stereo not drawn) [bitertanol], the pest or weed control at 20 ppm [1] was 0%, the pest or weed control at 20 ppm (Spodoptera frugiperda) was 0% and the pest or weed control at 20 ppm [2] was 0%. For the same compound, the Efficacy in % (Botrytis cinerea; 500 g/ha) was 30% and the “Efficacy in % calculated/found” value [4] was 0%.
CC(C)(C)C(O)(CCc1ccc(Cl)cc1)Cn1cncn1 (stereo not drawn) [tebuconazole] was tested, and the “Efficacy in % calculated/found” value (Pyrenophora teres; 62.5 g/ha, 7 days after inoculation) was 50%, the pest or weed control at 20 ppm [1] was 0% and the pest or weed control at 20 ppm (Spodoptera frugiperda) was 0%. It also gave a pest or weed control at 20 ppm [2] of 0%.
CO/C=C(/C(=O)OC)c1ccccc1Oc1cc(Oc2ccccc2C#N)ncn1 [azoxystrobin] was tested, and the “Efficacy in % calculated/found” value (Pyrenophora teres; 18.75 g/ha) was 0%, the pest or weed control at 20 ppm [1] was 0% and the pest or weed control at 20 ppm (Spodoptera frugiperda) was 0%. It also gave an Efficacy in % (Phytophthora infestans; 10 g/ha) of 74%, a pest or weed control at 20 ppm [2] of 0% and an Efficacy in % (Botrytis cinerea; 40 g/ha) of 42%.
Work on N#Cc1c[nH]cc1-c1cccc2c1OC(F)(F)O2 [fludioxonil] yielded a pest or weed control at 20 ppm [1] of 0%, a Kill in % ([5]; concentration 0.02 %) of 0% and an Efficacy in % (Botrytis cinerea; 10 g/ha, 2 days after inoculation) of 40%. The Efficacy in % (Fusarium culmorum) was 0%.
CN(C)C(=S)SSC(=S)N(C)C [TMTD] gave a pest or weed control at 20 ppm [1] of 0%, a Kill in % ([5]; concentration 0.1 %) of 0% and a Kill in % ([3]; concentration 0.1 %) of 0%.
Work on tolylfluanid yielded a Kill in % [1] of 0%, an Efficacy in % (Phytophthora infestans; 50 g/ha) of 34% and a Kill in % ([5]; concentration 0.02 %) of 0%. It also gave a Kill in % [6] of 0% and a Kill in % ([3]; concentration 0.02 %) of 0%.
With OC(Cc1ccccc1Cl)(Cn1nc[nH]c1=S)C1(Cl)CC1 (stereo not drawn) [(49)] the “Kill in % at active compound concentrations in ppm” value [7] was 10.00 ppm = 0%.
